Results published in US10934274B2, “Quinoline derivatives as TAM RTK inhibitors” (Qurient Co., Ltd., priority 2015, dated 2021).

Columns and labels:
Axl = molecular target: T1, Axl (Homo sapiens, UniProt P30530); test: LanthaScreen Eu kinase binding assay, Axl; conditions: Tracer 236
T1 construct: purchased Life Technologies
T1 sequence (P30530 26-894): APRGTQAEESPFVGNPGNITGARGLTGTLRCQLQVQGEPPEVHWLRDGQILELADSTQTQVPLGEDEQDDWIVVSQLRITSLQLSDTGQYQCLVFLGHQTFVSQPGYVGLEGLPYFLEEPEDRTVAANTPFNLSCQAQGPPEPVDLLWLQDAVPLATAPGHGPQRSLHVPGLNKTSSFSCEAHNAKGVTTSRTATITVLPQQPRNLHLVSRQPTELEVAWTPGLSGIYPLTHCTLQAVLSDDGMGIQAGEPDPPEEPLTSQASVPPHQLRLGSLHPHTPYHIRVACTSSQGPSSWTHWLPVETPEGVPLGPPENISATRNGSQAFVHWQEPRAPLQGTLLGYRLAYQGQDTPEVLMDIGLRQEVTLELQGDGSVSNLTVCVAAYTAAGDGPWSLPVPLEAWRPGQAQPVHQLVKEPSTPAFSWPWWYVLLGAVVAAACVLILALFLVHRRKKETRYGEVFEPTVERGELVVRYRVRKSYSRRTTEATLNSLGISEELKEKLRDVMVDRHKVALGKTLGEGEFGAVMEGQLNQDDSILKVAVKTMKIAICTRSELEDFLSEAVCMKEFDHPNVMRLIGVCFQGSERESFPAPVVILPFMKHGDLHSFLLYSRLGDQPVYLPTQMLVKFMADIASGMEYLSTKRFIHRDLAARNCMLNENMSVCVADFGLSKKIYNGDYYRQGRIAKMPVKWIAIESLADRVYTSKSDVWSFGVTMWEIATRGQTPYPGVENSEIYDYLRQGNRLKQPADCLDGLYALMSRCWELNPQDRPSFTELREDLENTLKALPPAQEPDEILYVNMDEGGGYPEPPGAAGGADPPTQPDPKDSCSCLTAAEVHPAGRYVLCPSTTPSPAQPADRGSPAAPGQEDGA

TYRO3 = molecular target: T2, TYRO3 (Homo sapiens, UniProt Q06418); test: LanthaScreen Eu kinase binding assay, TYRO3; conditions: Tracer 236
T2 construct: purchased Life Technologies
T2 sequence (Q06418 41-890): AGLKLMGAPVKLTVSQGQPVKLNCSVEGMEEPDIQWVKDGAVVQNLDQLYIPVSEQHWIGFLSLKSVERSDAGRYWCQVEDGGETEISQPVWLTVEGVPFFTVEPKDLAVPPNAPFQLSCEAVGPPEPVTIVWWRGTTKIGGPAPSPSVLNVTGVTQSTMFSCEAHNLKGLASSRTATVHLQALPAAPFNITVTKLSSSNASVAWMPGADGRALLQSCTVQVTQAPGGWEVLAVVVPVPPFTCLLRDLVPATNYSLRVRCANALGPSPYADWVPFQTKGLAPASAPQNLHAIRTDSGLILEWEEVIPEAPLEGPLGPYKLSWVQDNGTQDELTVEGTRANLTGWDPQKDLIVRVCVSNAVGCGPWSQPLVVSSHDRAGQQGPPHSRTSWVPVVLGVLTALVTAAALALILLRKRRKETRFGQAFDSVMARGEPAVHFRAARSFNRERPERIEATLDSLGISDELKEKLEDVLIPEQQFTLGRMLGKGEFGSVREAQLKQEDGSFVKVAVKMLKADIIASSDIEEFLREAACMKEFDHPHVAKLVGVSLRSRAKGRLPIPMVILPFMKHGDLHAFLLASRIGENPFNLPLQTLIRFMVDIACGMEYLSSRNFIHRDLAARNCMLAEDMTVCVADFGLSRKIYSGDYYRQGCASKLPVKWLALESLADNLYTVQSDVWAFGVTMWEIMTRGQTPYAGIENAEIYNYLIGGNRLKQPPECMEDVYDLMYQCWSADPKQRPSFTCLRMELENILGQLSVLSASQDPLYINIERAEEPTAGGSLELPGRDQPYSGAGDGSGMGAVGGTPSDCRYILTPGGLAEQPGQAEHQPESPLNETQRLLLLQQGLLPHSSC

| Compound | Kd (Axl) | Kd (TYRO3) |
| --- | --- | --- |
| CCOc1cn(-c2cnc(N)nc2)nc1C(=O)Nc1ccc(Oc2ccnc3cc(OC)c(OC(F)(F)F)cc23)cc1F [Compound 242] | ≥ 1000 nM | ≥ 1000 nM |
| COc1cc2nccc(Oc3ccc(NC(=O)c4nn(-c5cnc(N)cn5)cc4OCC(F)(F)F)nc3)c2cc1OC [Compound 248] | < 100 nM | < 100 nM |
| COc1cc2nccc(Oc3ccc(NC(=O)c4nn(-c5cnc(N)cn5)cc4OCC4CC4)nc3)c2cc1OC [Compound 249] | < 100 nM | < 100 nM |
| COc1cc2nccc(Oc3ccc(NC(=O)c4nn(-c5cnc(N)cn5)cc4OCC(F)(F)F)c(F)c3)c2cc1OC [Compound 252] | < 100 nM | < 100 nM |
| COc1cc2c(Oc3ccc(NC(=O)c4nn(-c5cnc(N)cn5)cc4OCC(F)(F)F)nc3)ccnc2cc1OC(C)C [Compound 253] | < 100 nM | < 100 nM |
| COc1cc2nccc(Oc3ccc(NC(=O)c4nn(-c5cnc(N)nc5)cc4OC(F)F)nc3)c2cc1OC [Compound 254] | < 100 nM | ≥ 1000 nM |
| COc1cc2nccc(Oc3ccc(NC(=O)c4nn(-c5cccnc5)cc4OCC4CC4)nc3)c2cc1OC [Compound 255] | < 100 nM | < 100 nM |
| COc1cc2c(Oc3ccc(NC(=O)c4nn(-c5cnc(N)nc5)cc4OCC(F)(F)F)nc3)ccnc2cc1OC(C)C [Compound 257] | < 100 nM | < 100 nM |
| COc1cc2nccc(Oc3ccc(NC(=O)c4nn(-c5ccc(F)cc5C)cc4OCC4CC4)nc3)c2cc1OC [Compound 258] | < 100 nM | < 100 nM |
| COc1cc2nccc(Oc3ccc(NC(=O)c4nn(-c5cnc(N)nc5)cc4OCC(F)(F)F)c(F)c3)c2cc1OC [Compound 259] | < 100 nM | < 100 nM |
| COc1cc2nccc(Oc3ccc(NC(=O)c4nn(-c5cnc(N)nc5)cc4OC(C)C)nc3)c2cc1OC [Compound 260] | < 100 nM | < 100 nM |
| COc1cc2nccc(Oc3ccc(NC(=O)c4nn(-c5cncnc5C5CC5)cc4OCC(F)(F)F)nc3)c2cc1OC [Compound 261] | < 100 nM | < 100 nM |

Second part, the molecule after the results:

| Kd (Axl) | Kd (TYRO3) | Compound |
| --- | --- | --- |
| < 100 nM | < 100 nM | CCOc1cn(-c2cnccc2CO)nc1C(=O)Nc1ccc(Oc2ccnc3cc(OC)c(OC(F)(F)F)cc23)cn1 [Compound 233] |
| < 100 nM | < 100 nM | CCC(C)Oc1cc2nccc(Oc3ccc(NC(=O)c4nn(-c5cccnc5)cc4OCC(F)(F)F)nc3)c2cc1OC (stereo not shown) [Compound 234] |
| < 100 nM | < 100 nM | COc1cc2nccc(Oc3ccc(NC(=O)c4nn(-c5cnc(Cl)cn5)cc4OCC(F)(F)F)nc3)c2cc1OC [Compound 236] |
| < 100 nM | < 100 nM | COc1cc2nccc(Oc3ccc(NC(=O)c4nn(-c5cnc(N)nc5)cc4OCC(F)(F)F)nc3)c2cc1OC [Compound 237] |
| < 100 nM | < 100 nM | COc1cc2nccc(Oc3ccc(NC(=O)c4nn(-c5cccnc5)cc4OCC4CC4)nc3)c2cc1OC(F)(F)F [Compound 239] |
| < 100 nM | < 100 nM | COc1cc2nccc(Oc3ccc(NC(=O)c4nn(-c5cnc(N)nc5)cc4OCC4CC4)nc3)c2cc1OC [Compound 240] |
| < 100 nM | ≥ 1000 nM | CCOc1cn(-c2cnc(N)nc2)nc1C(=O)Nc1ccc(Oc2ccnc3cc(OC)c(OC(F)(F)F)cc23)cn1 [Compound 241] |
| < 100 nM | < 100 nM | COc1cc2c(Oc3ccc(NC(=O)c4nn(-c5cnc(N)nc5)cc4OCC(F)(F)F)c(F)c3)ccnc2cc1OC(C)C [Compound 243] |
| < 100 nM | < 100 nM | COc1cc2nccc(Oc3ccc(NC(=O)c4nn(-c5ccc(OC(F)(F)F)cc5Cl)cc4OCC4CC4)nc3)c2cc1OC [Compound 244] |
| < 100 nM | < 100 nM | COc1cc2c(Oc3ccc(NC(=O)c4nn(-c5cnc(N)cn5)cc4OCC(F)(F)F)c(F)c3)ccnc2cc1OC(C)C [Compound 246] |
| < 100 nM | < 100 nM | COc1cc2nccc(Oc3ccc(NC(=O)c4nn(-c5cnccc5C(F)(F)F)cc4OCC4CC4)nc3)c2cc1OC [Compound 247] |
